The text below walks through data of US20230118688A1, “1H-PYRAZOLO[4,3-d]PYRIMIDINE COMPOUNDS AS TOLL-LIKE RECEPTOR 7 (TLR7) AGONISTS” (BRISTOL-MYERS SQUIBB COMPANY, priority 2020, published 2023).

Broadly, the EC50 is the concentration at which the effect is half-maximal.

One assay has as its target T1, human TLR7 (Homo sapiens, UniProt Q9NYK1).
T1 construct: host or cells: HEK-Blue TLR7 cells (engineered human embryonic kidney cells)
T1 sequence (Q9NYK1 27-1049): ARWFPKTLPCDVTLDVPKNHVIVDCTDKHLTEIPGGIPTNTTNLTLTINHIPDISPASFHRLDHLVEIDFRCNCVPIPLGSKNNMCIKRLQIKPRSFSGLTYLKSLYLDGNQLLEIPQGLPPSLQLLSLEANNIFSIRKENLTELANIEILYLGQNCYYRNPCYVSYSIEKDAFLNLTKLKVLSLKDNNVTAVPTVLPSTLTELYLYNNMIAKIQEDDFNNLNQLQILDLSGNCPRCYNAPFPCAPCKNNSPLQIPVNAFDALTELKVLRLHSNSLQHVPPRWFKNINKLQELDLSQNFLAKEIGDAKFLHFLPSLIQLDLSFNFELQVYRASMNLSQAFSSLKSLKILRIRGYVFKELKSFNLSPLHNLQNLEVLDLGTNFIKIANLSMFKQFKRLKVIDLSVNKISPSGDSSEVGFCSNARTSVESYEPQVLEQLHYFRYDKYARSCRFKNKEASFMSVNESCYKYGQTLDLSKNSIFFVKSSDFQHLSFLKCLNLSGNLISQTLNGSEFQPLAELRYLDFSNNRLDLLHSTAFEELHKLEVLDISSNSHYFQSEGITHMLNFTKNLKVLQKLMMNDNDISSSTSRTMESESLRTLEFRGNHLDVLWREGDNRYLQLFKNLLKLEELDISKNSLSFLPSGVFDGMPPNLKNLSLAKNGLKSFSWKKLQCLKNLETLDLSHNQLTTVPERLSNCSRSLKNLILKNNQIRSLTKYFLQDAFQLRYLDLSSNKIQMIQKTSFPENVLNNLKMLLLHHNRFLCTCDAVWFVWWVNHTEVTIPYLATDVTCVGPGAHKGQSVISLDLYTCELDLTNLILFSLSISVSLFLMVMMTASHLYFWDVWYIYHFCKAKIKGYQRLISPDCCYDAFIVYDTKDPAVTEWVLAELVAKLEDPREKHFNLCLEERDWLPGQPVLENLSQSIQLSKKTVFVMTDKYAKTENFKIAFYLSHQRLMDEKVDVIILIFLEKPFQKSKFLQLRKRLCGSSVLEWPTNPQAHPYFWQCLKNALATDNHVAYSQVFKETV
In words: Human TLR7 agonist activity reporter assay (HEK-Blue TLR7 cells, SEAP reporter). In kind it is cell-based. To be noted: 18 h treatment, average where assay repeated, Table A1, read-out: hTLR7 Agonism EC50. Summed up: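 HEK-Blue TLR7 cells (15,000/well) treated with compound for 18 h at 37 °C, 5% CO2. Secreted SEAP measured with Quanti-Blue, 30 min, OD 620 nm. EC50 taken as concentration giving half-maximal response between baseline and maximum.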
In general terms: In a reporter assay the amount or activity of a reporter protein is the signal.

The test system of the next assay is CD69. In words: Induction of CD69 in human whole blood. Format: cell-based. The conditions noted are these: 17 h, CD69 surface staining, 100% set to 1 uM resiquimod, average where assay repeated, Table A1, read-out: hWB CD69 EC50. On the procedure:
The induction of Type I interferon (IFN) MX-1 genes and the B-cell activation marker CD69 are downstream events that occur upon activation of the TLR7 pathway. The following is a human whole blood assay that measures their induction in response to a TLR7 agonist.
Heparinized human whole blood was harvested from human subjects and treated with test TLR7 agonist compounds at 1 mM. The blood was diluted with RPMI 1640 media and Echo was used to predot 10 nL per well giving a final concentration of 1 uM (10 nL in 10 uL of blood). After mixing on a shaker for 30 sec, the plates were covered and placed in a 37° C. chamber for o/n=17 hrs. Fixing/lysis buffer was prepared (5×->1× in H2O, warm at 37° C.; Cat #BD 558049) and kept the perm buffer (on ice) for later use.
For surface markers staining (CD69): prepared surface Abs: 0.045 ul hCD14-FITC (ThermoFisher Cat #MHCD1401)+0.6 ul hCD19-ef450 (ThermoFisher Cat #48-0198-42)+1.5 ul hCD69-PE (cat #BD555531)+0.855 ul FACS buffer. Added 3 ul/well, spin1000 rpm for 1 min and mixed on shaker for 30 sec, put on ice for 30 mins. Stop stimulation after 30 minutes with 70 uL of prewarmed 1× fix/lysis buffer and use Feliex mate to resuspend (15 times, change tips for each plate) and incubate at 37C for 10 minutes.
Centrifuge at 2000 rpm for 5 minutes aspirate with HCS plate washer, mix on shaker for 30 sec and then wash with 70 uL in dPBS and pelleted 2×s (2000 rpm for 5 min) and 50 ul wash in FACS buffer pelleted 1×s(2000 rpm for 5 min). Mix on shaker for 30 sec. For Intracellular markers staining (MX-1): Add 50 ul of BD Perm buffer III and mix on shaker for 30 sec. Incubate on ice for 30 minutes (in the dark). Wash with 50 uL of FACS buffer 2× (spin @2300 rpm×5 min after perm) followed by mixing on shaker for 30 sec. Resuspended in 20 ul of FACS buffer containing MX1 antibody ( ) (4812)-Alexa 647: Novus Biologicals #NBP2-43704AF647) 20 ul FACS bf+0.8 ul hlgG+0.04 ul MX-1. Spin 1000 rpm for 1 min, mix on shaker for 30se and the samples were incubated at RT in the dark for 45 minutes followed by washing 2×FACS buffer (spin @2300 rpm×5 min after perm). Resuspend 20 ul (35 uL total per well) of FACS buffer and cover with foil and place in 4° C. to read the following day. Plates were read on iQuePlus. The results were loaded into toolset and IC50 curves are generated in curve master. The y-axis 100% is set to 1 uM of resiquimod.

Turning to `COc1ccc(CNC2CCOCC2)cc1Cn1ncc2nc(N)nc(NCC3CC4(CC4)C3)c21` [Compound 150, 1-[(2-methoxy-5-{[(oxan-4-yl)amino]methyl}phenyl)-methyl]-N7-({spiro[2.3]-hexan-5-yl}methyl)-1H-pyrazolo[4,3-d]pyrimidine-5,7-diamine], the EC50 at human TLR7 was found to be 0.387 µM; in the assay with CD69, 0.298 µM.

In the case of `CCCCNc1nc(N)nc2cnn(Cc3cc(CN4CC(F)(F)C4)ccc3OC)c12` [Compound 151, N7-butyl-1-({5-[(3,3-difluoro-azetidin-1-yl)methyl]-2-methoxyphenyl}methyl)-1H-pyrazolo[4,3-d] pyrimidine-5,7-diamine], the results for the EC50 at human TLR7 and with CD69 were 0.768 µM and not below 1 µM, respectively.

Turning to `COc1ccc(C(=O)NC2CCN(C)CC2)cc1Cn1ncc2nc(N)nc(NCC3CC4(CC4)C3)c21` [Compound 152, 3-({5-amino-7-[({spiro-[2.3]hexan-5-yl}methyl)-amino]-1H-pyrazolo[4,3-d]pyrimidin-1-yl}methyl)-4-methoxy-N-(1-methylpiperidin-4-yl)benzamide], the EC50 at human TLR7 is 0.467 µM; in the assay on CD69, 0.159 µM.

For the compound `CCC[C@@H](CCO)Nc1nc(N)nc2cnn(Cc3cc(C(=O)N[C@@H]4CCN(C)C4)ccc3OC)c12` [Compound 154, 3-[(5-amino-7-{[(3S)-1-hydroxyhexan-3-yl]amino}-1H-pyrazolo[4,3-d]pyrimidin-1-yl)methyl]-4-methoxy-N-[(3R)-1-methylpyrrolidin-3-yl] benzamide], the values for the 50% effective concentration (EC50) at human TLR7 and with CD69 were 0.28 µM and 0.144 µM, respectively.

`CCC[C@@H](CCO)Nc1nc(N)nc2cnn(Cc3cc(CN4CCNCC4)ccc3OC)c12` [Compound 155, (3S)-3-{[5-amino-1-({2-methoxy-5-[(piperazin-1-yl)-methyl]phenyl}methyl)-1H-pyrazolo[4,3-d]pyrimidin-7-yl]amino}hexan-1-ol]: the EC50 at human TLR7 was 0.15 µM; with CD69, 0.129 µM.

On to `CCC[C@@H](CCO)Nc1nc(N)nc2cnn(Cc3cc(CN4CCN(CCO)CC4)ccc3OC)c12` [Compound 156, (3S)-3-({5-amino-1-[(5-{[4-(2-hydroxyethyl)piperazin-1-yl]methyl}-2-methoxy-phenyl)methyl]-1H-pyrazolo[4,3-d]pyrimidin-7-yl}amino)hexan-1-ol], for which the EC50 on human TLR7 was determined as 0.0569 µM; with CD69 it was 0.0736 µM.

With `CCC[C@@H](CCO)Nc1nc(N)nc2cnn(Cc3cc(CN4CCN(C)CC4)ccc3OC)c12` [Compound 157, (S)-3-((5-amino-1-(2-methoxy-5-((4-methylpiperazin-1-yl)methyl)benzyl)-1H-pyrazolo[4,3-d]pyrimidin-7-yl)amino)hexan-1-ol], the results for the 50% effective concentration (EC50) on human TLR7 and with CD69 were 0.0225 µM and 0.0132 µM, respectively.

For the compound `CCC[C@@H](CCO)Nc1nc(N)nc2cnn(Cc3cc(CN4CC5(CN(C)C5)C4)ccc3OC)c12` [Compound 158, (3S)-3-[(5-amino-1-{[2-methoxy-5-({6-methyl-2,6-diazaspiro[3.3]heptan-2-yl}methyl)phenyl]methyl}-1H-pyrazolo[4,3-d]pyrimidin-7-yl)amino]-hexan-1-ol], the EC50 at human TLR7 worked out at 0.604 µM; in the assay on CD69, 0.199 µM.

In the case of `CCC[C@@H](CCO)Nc1nc(N)nc2c(C)nn(Cc3cc(CN4CCN(CCO)CC4)ccc3OC)c12` [Compound 159, (3S)-3-({5-amino-1-[(5-{[4-(2-hydroxyethyl)piperazin-1-yl]methyl}-2-methoxyphenyl)methyl]-3-methyl-1H-pyrazolo[4,3-d]pyrimidin-7-yl}amino)hexan-1-ol], the results for the half-maximal effective concentration (EC50) on human TLR7 and in the assay with CD69 were 0.0986 µM and 0.0371 µM, respectively.

`COc1ccc(CN2CC(OC)C2)cc1Cn1ncc2nc(N)nc(NCC[C@H](O)C3CC3)c21` [Compound 160, (1S)-3-{[5-amino-1-({2-methoxy-5-[(3-methoxy-azetidin-1-yl)methyl]phenyl}-methyl)-1H-pyrazolo[4,3-d]pyrimidin-7-yl]amino}-1-cyclopropylpropan-1-ol]: the values for the EC50 at human TLR7 and in the assay with CD69 were 0.74 µM and 0.151 µM, respectively.
